Experimental data reported in EPA's ToxValDB 9.5.
Values after ≈ are worked out from the molar mass of the structure shown. Values joined by “and” are separate entries in the source; they are usually repeats but may differ in a detail not shown here. Equal values may be shown once.

How the values were obtained:
Rattus norvegicus [1] = assay: LD40; higher = less toxic; conditions: acute; oral; gavage; Wistar
Rattus norvegicus [2] = conditions: for LC50 / LD50: acute
Cavia sp. = conditions: acute; inhalation; FTD Hartley
Monkey [3] = conditions: subchronic; duration: 3 months; inhalation; Cynomolgus
Mus musculus [4] = conditions: for LC50 / LD50: acute; for LD50: injection
Monkey [5] = conditions: subchronic; duration: 55 days; oral; diet; M; Squirrel Monkey; neurological
Rattus norvegicus [6] = test system: Rattus norvegicus
Tytonidae = conditions: oral
Rattus norvegicus [7] = conditions: repeat dose other; oral
Rattus norvegicus [8] = test system: Rattus norvegicus; remark: listed apart in the source
Rattus norvegicus [9] = conditions: chronic, duration: 2 years, oral, diet
Mus musculus [10] = assay: LC100; higher = less toxic; conditions: acute; inhalation
Oryctolagus sp. [11] = conditions: subchronic; duration: 7 weeks; inhalation
Cavia porcellus = conditions: subchronic, inhalation, Guinea Pig
Rattus norvegicus [12] = conditions: subchronic; duration: 90 days; oral; gavage; M/F; Sprague-Dawley; Whole Body Effects
Oryctolagus sp. [13] = conditions: reproduction developmental; duration: 22 days; oral; gavage; M/F; New Zealand; neurological
Perdix perdix = conditions: oral
Canidae = conditions: chronic, duration: 1 years, oral, diet, Dog Other, Decreased weight gain in males and neurologic findings in both sexes
Homo sapiens = conditions: clinical; duration: 30 minutes; inhalation; M/F; respiratory
Sus scrofa = conditions: chronic; duration: 105 days; oral; diet; Not specified; Gastrointestinal system: Disturbance
Mus musculus [14] = conditions: subchronic; duration: 13 weeks; inhalation; intermittent; Nasal mucosa: Inflammation
[15] = chronic, duration: 2 years, oral, diet, M/F, liver lesions
[16] = subchronic, oral, M/F, reduced body weight
[17] = subchronic, duration: 35 days, inhalation, ICR
[18] = subchronic, duration: 90 days, oral, gavage, Albino- not specified
[19] = chronic, duration: 2 years, oral, diet, F, increased incidence of marked progressive glomerulonephrosis and blood vessel aneurysms in males + Reduced body weight gain in males and …
[20] = subchronic, inhalation, M, nasal lesions of the olfactory mucosa

Question: CC(C)(C)C(=O)CCc1ccc(Cl)cc1 [1-(4-Chlorophenyl)-4,4-dimethyl-pentan-3-one] was tested. Which LD40 (Rattus norvegicus [1]) did it give?
Answer: 3140 mg/kg

Question: What about the LC50 (Rattus norvegicus [2]; Inhalation, Wistar) of the same compound?
Answer: > 2940 mg/m3

Question: And the LD50 (Rattus norvegicus [2]; dermal, occlusive, Wistar)?
Answer: > 5000 mg/kg

Question: And the LD50 (Rattus norvegicus [2]; oral, gavage, Wistar)?
Answer: 4750 mg/kg and > 5000 mg/kg and 4820 mg/kg

Question: Which results are given for [C-]#[O+] [Carbon monoxide]?
Answer: LC50 (Cavia sp.): 2070 mg/m3 and ≥ 1830 mg/m3 and ≤ 2240 mg/m3; LOAEL (Monkey [3]): 115 mg/m3; LC50 (Mus musculus [4]; inhalation, NIH/Nmri Swiss albino): 2070 mg/m3 and ≥ 1830 mg/m3 and ≤ 2240 mg/m3; LOAEL (Mus musculus [4]; reproduction developmental, duration: 7 days, inhalation, CD1, generation: F1): 143 mg/m3

Question: How did the NOAEL (Monkey [5]) turn out when ClC1=C(Cl)[C@]2(Cl)[C@@H]3[C@@H]4C[C@@H]([C@H]5O[C@@H]45)[C@@H]3[C@@]1(Cl)C2(Cl)Cl [Dieldrin] was run?
Answer: 0.01 mg/kg-day

Question: And the NOAEL (Rattus norvegicus [6]; chronic, duration: 2 years, oral, diet, M/F, Carworth Farms E, hepatic)?
Answer: 0.005 mg/kg-day

Question: And the NOAEL (Tytonidae)?
Answer: 0.077 mg/kg-day

Question: What about the LOAEL (Rattus norvegicus [7]) of the same compound?
Answer: 0.2 mg/kg-day

Question: And the NOAEL (Rattus norvegicus [7])?
Answer: 0.02 mg/kg-day

Question: What about the LOAEL (Rattus norvegicus [8]; [15]) of the same compound?
Answer: 0.05 mg/kg-day

Question: And the NOAEL (Rattus norvegicus [8]; [15])?
Answer: 0.005 mg/kg-day

Question: And the NOAEL (Rattus norvegicus [9]; Liver: Lesions)?
Answer: 0.005 mg/kg-day

Question: With CCOCC [Diethyl ether] as the compound, how does the LC100 (Mus musculus [10]) read?
Answer: 128 mg/L

Question: What about the LOAEL (Rattus norvegicus [8]; [16]) of the same compound?
Answer: 2000 mg/kg-day

Question: And the NOAEL (Rattus norvegicus [8]; [16])?
Answer: 500 mg/kg-day

Question: What about the NOAEL (Oryctolagus sp. [11]) of the same compound?
Answer: 6.2 mg/L

Question: What about the NOAEL (Cavia porcellus; duration: 7 weeks) of the same compound?
Answer: 6.2 mg/L

Question: What about the LOAEL (Cavia porcellus; duration: 35 days) of the same compound?
Answer: 30 mg/L

Question: What about the NOAEL (Cavia porcellus; duration: 35 days) of the same compound?
Answer: 3 mg/L

Question: And the LC50 (Mus musculus [4]; inhalation)?
Answer: 130 µg/mL (≈ 1750 µM)

Question: And the LC50 (Mus musculus [4]; inhalation, C3H/HeCr)?
Answer: 98200 mg/m3 and 94900 mg/m3

Question: What about the LC50 (Mus musculus [4]; inhalation, C57BL/6) of the same compound?
Answer: 199000 mg/m3 and 182000 mg/m3

Question: What about the LD50 (Mus musculus [4]; Intraperitoneal) of the same compound?
Answer: 2420 mg/kg

Question: What about the LD50 (Mus musculus [4]; intravenous) of the same compound?
Answer: 996 mg/kg

Question: And the LOAEL (Mus musculus [4]; [17])?
Answer: 30 mg/L

Question: And the NOAEL (Mus musculus [4]; [17])?
Answer: 3 mg/L

Question: What about the LC50 (Rattus norvegicus [2]; oral, Sprague-Dawley) of the same compound?
Answer: 1710 mg/kg

Question: And the NOAEL (Rattus norvegicus [2]; subchronic, duration: 7 weeks, inhalation, Wistar)?
Answer: 6.2 mg/L

Question: What about the NOAEL (Rattus norvegicus [2]; subchronic, duration: 35 days, inhalation, Sprague-Dawley) of the same compound?
Answer: 30 mg/L

Question: What about the LOAEL (Rattus norvegicus [2]; [18]) of the same compound?
Answer: 2000 mg/kg-day

Question: And the NOAEL (Rattus norvegicus [2]; [18])?
Answer: 500 mg/kg-day

Question: And the NOAEL (Rattus norvegicus [12])?
Answer: 500 mg/kg-day

Question: How did the NOAEL (Oryctolagus sp. [13]) turn out when O=S1OCC2C(CO1)C1(Cl)C(Cl)=C(Cl)C2(Cl)C1(Cl)Cl (stereo not drawn) [Endosulfan] was run?
Answer: 0.7 mg/kg-day

Question: What about the NOAEL (Rattus norvegicus [6]; chronic, duration: 22 weeks, oral, diet, M, Wistar, immunological) of the same compound?
Answer: 0.45 mg/kg-day

Question: What about the NOAEL (Perdix perdix) of the same compound?
Answer: 10 mg/kg-day

Question: What about the NOAEL (Rattus norvegicus [7]) of the same compound?
Answer: 0.15 mg/kg-day

Question: And the LOAEL (Canidae; F)?
Answer: 1.9 mg/kg-day

Question: And the NOAEL (Canidae; F)?
Answer: 0.57 mg/kg-day

Question: And the LOAEL (Canidae; M)?
Answer: 2.1 mg/kg-day

Question: And the LOAEL (Rattus norvegicus [8]; [19])?
Answer: 3.8 mg/kg-day

Question: And the NOAEL (Rattus norvegicus [8]; [19])?
Answer: 0.7 mg/kg-day

Question: And the LOAEL (Rattus norvegicus [8]; chronic, duration: 2 years, oral, diet, M, increased incidence of marked progressive glomerulonephrosis and blood vessel aneurysms in males + Reduced body weight gain in males and …)?
Answer: 2.9 mg/kg-day

Question: And the NOAEL (Rattus norvegicus [8]; chronic, duration: 2 years, oral, diet, M, reduced body weight gain (males) and females increased incidence of marked progressive glomerulonephrosis and blood vessel aneurysms (males))?
Answer: 0.6 mg/kg-day

Question: And the NOAEL (Rattus norvegicus [9]; Blood vessel: Aneurysms + Kidney: Glomerulonephrosis + Whole body: Decreased weight gain)?
Answer: 1.17 mg/kg-day

Question: Which LOAEL (Homo sapiens) does the source give for S [Hydrogen sulfide] here?
Answer: 2.79 mg/m3

Question: What about the NOAEL (Rattus norvegicus [6]; subchronic, duration: 10 weeks, inhalation, M, Sprague-Dawley, respiratory) of the same compound?
Answer: 13.9 mg/m3

Question: And the LOAEL (Rattus norvegicus [8]; [20])?
Answer: 41.7 mg/m3

Question: And the NOAEL (Rattus norvegicus [8]; [20])?
Answer: 13.9 mg/m3

Question: And the LC50 (Rattus norvegicus [2]; inhalation, Sprague-Dawley)?
Answer: 619 mg/m3 and ≥ 580 mg/m3 and ≤ 659 mg/m3

Question: What about the NOAEL (Rattus norvegicus [2]; reproduction developmental, duration: 18 days, inhalation, F, Sprague-Dawley) of the same compound?
Answer: 112 mg/m3

Question: What about the NOAEL (Rattus norvegicus [2]; reproduction developmental, inhalation, Sprague-Dawley, generation: F0) of the same compound?
Answer: 112 mg/m3

Question: What about the NOAEL (Rattus norvegicus [2]; reproduction developmental, inhalation, Sprague-Dawley, generation: F1) of the same compound?
Answer: 112 mg/m3

Question: What about the NOAEL (Sus scrofa) of the same compound?
Answer: 3.1 mg/kg-day

Question: What about the NOAEL (Mus musculus [14]) of the same compound?
Answer: 42 mg/m3
